Read-outs that look alike come from different tables or passages of the source.

For one assay, the system named is OXPHOS gene expression. It is filed as cell-based, mouse. As to conditions: for GE-HTS (composite Z-score): normalized score vs mock-treated (DMSO) wells.
The next assay has as its system cytochrome c. The class given is cell-based, mouse. The settings on record: for cyt c (composite Z-score): normalized score vs mock-treated (DMSO) wells.
Another assay relates to reactive oxygen species. The class given is cell-based, mouse. The settings on record: for ROS (composite Z-score): normalized score vs mock-treated (DMSO) wells.
A further assay deals with mtOXPHOS transcripts. The class given is cell-based, mouse. As to conditions: for mitoOX (composite Z-score): normalized score vs mock-treated (DMSO) wells.
The subject of a further assay is nuOXPHOS transcripts. It is filed as cell-based, mouse. As to conditions: for nucOX (composite Z-score): normalized score vs mock-treated (DMSO) wells.
The next assay deals with C2C12 myotubes. The settings on record: for Viability (composite Z-score): normalized score vs mock-treated (DMSO) wells.
Assay [1] deals with cellular dehydrogenase activity. The settings on record: for MTT (composite Z-score): normalized score vs mock-treated (DMSO) wells.
Assay [2] deals with mitochondrial membrane potential. The class given is cell-based, mouse. The settings on record: for ΔΨm (composite Z-score): normalized score vs mock-treated (DMSO) wells.
Where [3] appears, read: composite Z-score vs DMSO, Conc 20 μM.
Setting [4] is: composite Z-score vs mock-treated (DMSO) wells, Conc 20 μM.
Where [5] appears, read: 20 μM, composite Z-score vs DMSO.
Where [6] appears, read: 14.26 μM, composite Z-score vs DMSO.

Chain of cytochrome c (P62897 whole entry): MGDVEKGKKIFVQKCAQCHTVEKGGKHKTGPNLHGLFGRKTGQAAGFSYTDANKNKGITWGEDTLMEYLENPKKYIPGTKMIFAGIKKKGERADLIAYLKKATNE

`C[C@]12CC[C@H]3C(=CCc4cc(O)ccc43)[C@@H]1CCC2=O` [equilin] gave a GE-HTS in the assay on OXPHOS gene expression of −0.626. The molecule also had a cyt c in the assay with cytochrome c of −0.069. In the assay with reactive oxygen species, this molecule showed an ROS of 0.259. This molecule yielded a mitoOX in the assay with mtOXPHOS transcripts of −0.676. This molecule gave a nucOX in the assay on nuOXPHOS transcripts of −0.538. The molecule further displayed a Viability in the assay with C2C12 myotubes of −0.882. This molecule gave an MTT in assay [1] of −2.270. The ΔΨm in assay [2] is −0.408.
With `CNC(=O)ON=C(C)SC` [methomyl], the GE-HTS in the assay with OXPHOS gene expression (setting [3]) was −0.703. Also, the cyt c in the assay with cytochrome c (setting [3]) was −0.007. In the assay with reactive oxygen species (setting [3]), this molecule displayed an ROS of 0.231. The same molecule had a mitoOX in the assay with mtOXPHOS transcripts (setting [3]) of −0.317. This molecule had a nucOX in the assay on nuOXPHOS transcripts (setting [3]) of −0.805. The molecule further displayed a Viability in the assay with C2C12 myotubes (setting [3]) of 1.361. In assay [1] (setting [3]), this molecule yielded an MTT of −1.481. Besides, the ΔΨm in assay [2] (setting [3]) is −0.493.
The molecule `CC(=O)O[C@H]1C[C@@H](OC(C)=O)C(C)(C)[C@@H]2C[C@@H](OC(C)=O)[C@]3(C)[C@H](CC[C@@]4(C)[C@H](c5ccoc5)OC(=O)[C@H]5O[C@@]534)[C@@]12C` [khivorin] came in with a GE-HTS with OXPHOS gene expression (setting [4]) of −0.144. The molecule also displayed a cyt c in the assay on cytochrome c (setting [4]) of 0.229. The ROS in the assay with reactive oxygen species (setting [4]) was 0.187. The mitoOX in the assay with mtOXPHOS transcripts (setting [4]) was −0.423. This molecule gave a nucOX with nuOXPHOS transcripts (setting [4]) of −0.022. This molecule also displayed a Viability in the assay on C2C12 myotubes (setting [4]) of 0.807. For the same molecule, the MTT in assay [1] (setting [4]) is −1.421. For the same molecule, the ΔΨm in assay [2] (setting [4]) is −0.145.
`COc1cc2ccc(=O)oc2cc1O` [scopoletin]: the GE-HTS in the assay on OXPHOS gene expression is −0.462; in the assay on OXPHOS gene expression (setting [5]), 0.543. Besides, the cyt c was 0.501 in the assay with cytochrome c and 0.928 with cytochrome c (setting [5]). Further, the ROS in the assay with reactive oxygen species was −0.017; in the assay on reactive oxygen species (setting [5]), 0.727. Besides, the mitoOX was −0.291 in the assay with mtOXPHOS transcripts and 0.101 in the assay on mtOXPHOS transcripts (setting [5]). The nucOX in the assay on nuOXPHOS transcripts was −0.513; in the assay on nuOXPHOS transcripts (setting [5]) it was 0.746. Also, the values for the Viability in the assay on C2C12 myotubes and in the assay with C2C12 myotubes (setting [5]) were 0.413 and 0.675, respectively. Besides, the results for the MTT in assay [1] and in assay [1] (setting [5]) were 0.261 and −0.957, respectively. The ΔΨm is on record as 0.146 in assay [2] and −0.056 in assay [2] (setting [5]).
Regarding `CCN(CC)CCNC(=O)COc1ccc(OC)cc1` [mefexamide], the GE-HTS in the assay with OXPHOS gene expression (setting [6]) was −0.340; with OXPHOS gene expression (setting [5]), −0.215. The figures for the cyt c in the assay with cytochrome c (setting [6]) and with cytochrome c (setting [5]) were 0.129 and −0.257, respectively. Also, the ROS in the assay on reactive oxygen species (setting [6]) came out at 1.172; with reactive oxygen species (setting [5]) it was 0.837. Further, the mitoOX in the assay with mtOXPHOS transcripts (setting [6]) was 0.009; with mtOXPHOS transcripts (setting [5]), −0.101. The results for the nucOX with nuOXPHOS transcripts (setting [6]) and in the assay with nuOXPHOS transcripts (setting [5]) were −0.498 and −0.253, respectively. Moreover, the Viability in the assay on C2C12 myotubes (setting [6]) is −0.541; in the assay with C2C12 myotubes (setting [5]), −2.120. In addition, the MTT is reported as −1.363 in assay [1] (setting [6]) and −1.270 in assay [1] (setting [5]). In addition, the ΔΨm was −0.719 in assay [2] (setting [6]) and −0.643 in assay [2] (setting [5]).
For the molecule avermectin B1, the GE-HTS with OXPHOS gene expression (setting [3]) came to 0.198. The molecule further gave a cyt c in the assay on cytochrome c (setting [3]) of 0.116. The ROS in the assay with reactive oxygen species (setting [3]) was 2.442. Besides, in the assay on mtOXPHOS transcripts (setting [3]), the mitoOX is listed as 0.295. This molecule also returned a nucOX in the assay with nuOXPHOS transcripts (setting [3]) of 0.170. This molecule returned a Viability in the assay with C2C12 myotubes (setting [3]) of 0.129. Besides, the MTT in assay [1] (setting [3]) is reported as −0.284. For the same molecule, in assay [2] (setting [3]), the ΔΨm was −0.336.
For `COc1ccc(-c2c(O)c3c(OC)c4c(cc3oc2=O)OC(C)(C)C=C4)cc1` [robustic acid, reference compound], the “GE-HTS (composite Z-score)” value in the assay with OXPHOS gene expression (Conc 20 μM) is −0.930. Moreover, in the assay on cytochrome c (Conc 20 μM), the “cyt c (composite Z-score)” value is −0.459. Besides, the “ROS (composite Z-score)” value with reactive oxygen species (Conc 20 μM) is recorded as −0.119. For the same molecule, in the assay with mtOXPHOS transcripts (Conc 20 μM), the “mitoOX (composite Z-score)” value is recorded as −0.587. Moreover, the “nucOX (composite Z-score)” value in the assay on nuOXPHOS transcripts (Conc 20 μM) is listed as −0.973. Moreover, the “Viability (composite Z-score)” value in the assay on C2C12 myotubes (Conc 20 μM) is recorded as −1.213. In addition, the “MTT (composite Z-score)” value in assay [1] (Conc 20 μM) is −1.831. Besides, the “ΔΨm (composite Z-score)” value in assay [2] (Conc 20 μM) is reported as −1.086.
Regarding `O=C(O)Cc1cc(I)c(Oc2cc(I)c(O)c(I)c2)c(I)c1` [tetrac], the “GE-HTS (composite Z-score)” value in the assay with OXPHOS gene expression (Conc 20 μM) is on record as 0.811. For the same molecule, in the assay with cytochrome c (Conc 20 μM), the “cyt c (composite Z-score)” value turned out to be 0.674. For the same molecule, the “ROS (composite Z-score)” value in the assay with reactive oxygen species (Conc 20 μM) was 2.718. In the assay with mtOXPHOS transcripts (Conc 20 μM), the “mitoOX (composite Z-score)” value is given as 0.898. In addition, the “nucOX (composite Z-score)” value with nuOXPHOS transcripts (Conc 20 μM) came to 0.714. The “Viability (composite Z-score)” value with C2C12 myotubes (Conc 20 μM) is 1.361. Besides, the “MTT (composite Z-score)” value in assay [1] (Conc 20 μM) is given as −0.677. In addition, the “ΔΨm (composite Z-score)” value in assay [2] (Conc 20 μM) is −1.457.
As to `C1COC(NC(C2CC2)C2CC2)=N1` [rilmenidine], the GE-HTS in the assay with OXPHOS gene expression was 0.123. The cyt c in the assay with cytochrome c is −0.042. Further, the ROS in the assay on reactive oxygen species is reported as 0.340. Moreover, the mitoOX in the assay on mtOXPHOS transcripts was −0.313. In addition, the nucOX in the assay on nuOXPHOS transcripts is on record as 0.319. In the assay with C2C12 myotubes, this molecule showed a Viability of 0.245. In addition, in assay [1], the MTT worked out at 0.082. For the same molecule, in assay [2], the ΔΨm is reported as −0.589.

These data come from patent US20090143279A1 (priority 2007, published 2009).
